Among the data in ChEMBL document CHEMBL1149421, “Potent 4-arylalkyl-substituted 3-isothiazolol GABA(A) competitive/noncompetitive antagonists: synthesis and pharmacology” (J Med Chem, 2006) are Ki and Emax values, retold here.

SMILES strings stand for the structures.

Assay [1] concerns the target GABA A receptor alpha-5/beta-3/gamma-2 (Rattus norvegicus, UniProt P18508+P19969+P63079). As to the kind of experiment: Displacement of [3H]muscimol from GABAA alpha-1-beta-3-gamma-2S in rat brain membrane. The format is cell membranes.
Assay [2] concerns the target T1, GABA-A receptor; alpha-1/beta-3/gamma-2 (Homo sapiens, UniProt P14867+P18507+P28472).
T1 sequence (P14867 whole entry): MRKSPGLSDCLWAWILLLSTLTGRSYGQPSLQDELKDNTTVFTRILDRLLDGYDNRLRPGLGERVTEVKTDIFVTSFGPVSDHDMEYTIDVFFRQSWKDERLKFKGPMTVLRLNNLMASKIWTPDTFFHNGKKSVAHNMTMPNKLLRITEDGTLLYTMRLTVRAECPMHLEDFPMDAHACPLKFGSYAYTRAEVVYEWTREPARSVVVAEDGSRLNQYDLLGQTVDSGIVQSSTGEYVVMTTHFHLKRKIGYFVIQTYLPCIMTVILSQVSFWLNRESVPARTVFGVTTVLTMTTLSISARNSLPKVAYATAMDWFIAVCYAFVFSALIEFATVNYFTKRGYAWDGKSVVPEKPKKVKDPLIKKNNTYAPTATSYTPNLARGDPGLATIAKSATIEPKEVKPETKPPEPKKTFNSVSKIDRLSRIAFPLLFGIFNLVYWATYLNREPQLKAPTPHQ
T1 sequence (P18507 whole entry): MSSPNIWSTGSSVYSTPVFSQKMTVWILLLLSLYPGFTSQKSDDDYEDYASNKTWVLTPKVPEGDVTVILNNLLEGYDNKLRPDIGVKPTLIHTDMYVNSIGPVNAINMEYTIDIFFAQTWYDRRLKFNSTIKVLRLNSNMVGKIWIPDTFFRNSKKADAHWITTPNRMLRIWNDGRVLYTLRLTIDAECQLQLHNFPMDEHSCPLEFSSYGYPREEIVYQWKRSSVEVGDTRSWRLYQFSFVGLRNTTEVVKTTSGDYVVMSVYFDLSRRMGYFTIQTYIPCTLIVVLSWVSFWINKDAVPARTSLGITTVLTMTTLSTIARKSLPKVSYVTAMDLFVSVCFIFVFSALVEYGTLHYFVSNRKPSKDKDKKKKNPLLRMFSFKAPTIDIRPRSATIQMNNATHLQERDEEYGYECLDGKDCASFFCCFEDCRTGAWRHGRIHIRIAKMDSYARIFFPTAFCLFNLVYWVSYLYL
T1 sequence (P28472 whole entry): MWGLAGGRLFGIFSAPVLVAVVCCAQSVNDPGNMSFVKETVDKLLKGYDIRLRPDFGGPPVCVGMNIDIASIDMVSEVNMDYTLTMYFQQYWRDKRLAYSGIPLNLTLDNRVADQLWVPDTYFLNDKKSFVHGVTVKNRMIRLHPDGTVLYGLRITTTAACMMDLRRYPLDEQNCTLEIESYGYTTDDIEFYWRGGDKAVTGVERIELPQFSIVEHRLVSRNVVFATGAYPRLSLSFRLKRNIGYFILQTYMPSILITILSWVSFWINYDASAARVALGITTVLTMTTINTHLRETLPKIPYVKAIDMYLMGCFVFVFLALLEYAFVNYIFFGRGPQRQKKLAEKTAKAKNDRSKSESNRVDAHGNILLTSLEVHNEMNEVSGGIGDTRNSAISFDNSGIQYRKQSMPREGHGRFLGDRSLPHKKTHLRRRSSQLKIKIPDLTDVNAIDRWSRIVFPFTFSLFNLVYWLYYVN
As to the kind of experiment: Binding affinity at human GABAA alpha-1-beta-3-gamma-2S expressed in Xenopus oocytes by voltage-clamp electrophysiology. It counts as functional, cell-based, Oocyte.

Assay [3] has as its target GABA-A receptor; alpha-1/beta-3/gamma-2 (Homo sapiens) (UniProt P14867+P18507+P28472). As to the kind of experiment: Maximal effect at GABA alpha-1-beta-3-gamma-2S expressed in Xenopus oocytes. The format is functional, cell-based. The following applies: Oocyte.
A short description of assay [4]: Binding affinity at human GABAA alpha-4-beta-3-delta expressed in Xenopus oocytes by voltage-clamp electrophysiology. It counts as functional, cell-based. The note with it: oocyte.
A short description of assay [5]: Maximal effect at GABA alpha-4-beta-3-delta expressed in Xenopus oocytes. The following applies: Homo sapiens, Oocyte. The format is functional.

The Ki is a dissociation constant, usually derived from enzyme kinetics or from competition with a known ligand. A higher Ki goes with a looser hold on the target. As usually defined, the Emax is the greatest response seen or fitted, relative to the assay's reference.

Sequence of GABA A receptor alpha-5/beta-3/gamma-2 (P18508 whole entry): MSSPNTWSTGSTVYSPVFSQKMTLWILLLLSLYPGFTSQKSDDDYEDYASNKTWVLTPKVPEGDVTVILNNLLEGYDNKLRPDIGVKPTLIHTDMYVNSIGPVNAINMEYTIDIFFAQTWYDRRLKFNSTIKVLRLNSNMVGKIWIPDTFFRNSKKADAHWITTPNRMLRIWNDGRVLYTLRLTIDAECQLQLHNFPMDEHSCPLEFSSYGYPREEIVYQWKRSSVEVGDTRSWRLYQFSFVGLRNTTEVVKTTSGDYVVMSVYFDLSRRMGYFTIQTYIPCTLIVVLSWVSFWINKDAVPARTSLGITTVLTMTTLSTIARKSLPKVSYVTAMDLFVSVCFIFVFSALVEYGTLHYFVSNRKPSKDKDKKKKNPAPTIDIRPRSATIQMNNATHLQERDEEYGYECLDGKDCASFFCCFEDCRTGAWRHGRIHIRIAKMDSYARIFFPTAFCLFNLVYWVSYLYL
Sequence of GABA A receptor alpha-5/beta-3/gamma-2 (P19969 whole entry): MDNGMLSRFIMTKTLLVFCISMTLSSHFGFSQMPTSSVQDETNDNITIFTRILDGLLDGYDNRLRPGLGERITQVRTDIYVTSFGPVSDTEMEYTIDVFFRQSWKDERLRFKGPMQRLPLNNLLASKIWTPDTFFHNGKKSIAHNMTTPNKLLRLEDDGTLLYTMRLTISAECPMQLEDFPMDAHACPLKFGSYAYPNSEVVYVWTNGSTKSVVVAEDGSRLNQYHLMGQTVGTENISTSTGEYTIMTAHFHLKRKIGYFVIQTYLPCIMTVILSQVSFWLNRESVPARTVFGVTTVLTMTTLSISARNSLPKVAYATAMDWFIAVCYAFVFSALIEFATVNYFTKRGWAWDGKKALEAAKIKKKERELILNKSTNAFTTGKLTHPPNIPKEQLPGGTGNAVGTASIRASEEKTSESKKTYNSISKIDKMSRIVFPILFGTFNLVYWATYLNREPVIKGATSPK
Sequence of GABA A receptor alpha-5/beta-3/gamma-2 (P63079 whole entry): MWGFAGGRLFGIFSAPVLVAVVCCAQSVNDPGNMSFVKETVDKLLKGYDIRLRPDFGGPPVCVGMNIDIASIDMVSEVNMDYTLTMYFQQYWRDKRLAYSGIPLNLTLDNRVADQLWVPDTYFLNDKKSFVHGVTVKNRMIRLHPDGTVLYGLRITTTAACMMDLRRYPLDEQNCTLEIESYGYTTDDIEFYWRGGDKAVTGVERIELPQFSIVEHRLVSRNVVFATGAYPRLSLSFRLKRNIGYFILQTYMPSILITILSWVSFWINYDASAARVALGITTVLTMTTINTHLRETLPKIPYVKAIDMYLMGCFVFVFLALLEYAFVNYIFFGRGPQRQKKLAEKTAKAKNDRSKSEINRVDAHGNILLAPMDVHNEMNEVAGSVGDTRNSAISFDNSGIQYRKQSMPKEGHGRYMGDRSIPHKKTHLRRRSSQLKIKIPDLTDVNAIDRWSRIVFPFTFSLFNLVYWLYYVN

For `Oc1nsc(C2CCNCC2)c1Cc1ccc2ccccc2c1`, the Ki in assay [1] stood at 5.2 nM; in assay [2], 22 nM.
Consider `Oc1noc(C2CCNCC2)c1CCC(c1ccccc1)c1ccccc1`, for which the Emax in assay [3] is 90%. Also, the values for the Ki in assay [1], in assay [2] and in assay [4] were 68 nM, 20 nM and 2.3 nM, respectively.
Consider `O=c1[nH]sc(C2CCNCC2)c1CC(c1ccccc1)c1ccccc1`, for which the Ki in assay [1] was 388 nM; in assay [2], 720 nM.
Regarding `Oc1nsc(C2CCNCC2)c1Cc1ccc2ccccc2c1Br`, the Ki in assay [1] is 1.8 nM; in assay [2], 3 nM.
Taken in the same sequence, the figures for `Oc1nsc(C2CCNCC2)c1Cc1ccccc1` were 331 nM and 465 nM.
`Cc1c(O)nsc1C1CCNCC1`: the Ki in assay [1] stood at 2200 nM; in assay [2], 2880 nM.
Taken in the same sequence, the figures for `Oc1noc(C2CCNCC2)c1Cc1ccc2ccccc2c1` were 49 nM and 370 nM.
Take `Oc1nsc(C2CCNCC2)c1CCC(c1ccccc1)c1ccccc1`: the Ki in assay [1] came out at 9.6 nM; in assay [2] it was 1.2 nM; in assay [4], 0.35 nM. Also, in assay [5], the Emax turned out to be 40%.
On to `CCCc1c(C2CCNCC2)s[nH]c1=O`, for which the Ki in assay [1] came to 440 nM; in assay [2], 230 nM.
Taken in the same sequence, the figures for `Oc1cc(C2CCNCC2)sn1` were 1870 nM and 25700 nM.
